Counter-ions that a name gives are not always drawn. Like-named read-outs stand apart in the source and are kept apart here.
What was measured:
Human plasma stability = type: in vitro ADME; conditions: plasma; for % Remaining @ 2 h: 5 μM
Procedure: Protocol 1: Studies were carried out in human plasma. All plasma was obtained from Bioreclamation and collected on sodium heparin. Plasma was adjusted to pH 7.4. A DMSO stock was first prepared for the test compound. An aliquot of the DMSO solution was dosed into 1 mL of plasma, which had been pre-warmed to 37° C., at a final test compound concentration of 1 μM. The vials were kept in a benchtop Thermomixer® for the duration of the experiment. Aliquots (100 μL) were taken at each time point (0, 15, 30, 60, and 120 minutes) and added to 96-well plates which had been pre-filled with 300 μL of acetonitrile. Samples were stored at 4° C. until the end of the experiment. After the final time point was sampled, the plate was mixed and then centrifuged at 3,000 rpm for 10 minutes. Aliquots of the supernatant were removed, diluted 1:1 into distilled water, and analyzed by LC-MS/MS. The peak area response ratio to internal standard (PARR) of the compound at 15, 30, 60 and 120 minutes was compared to the PARR at time 0 to determine the percent of test compound remaining at each time point. Half-lives were calculated using GraphPad software, fitting to a single-phase exponential decay equation.
Protocol 2: Studies were carried out in plasma. Plasma was prepared under approval of IRB and IACUC on sodium heparin. The pH of plasma was monitored and used within the range of pH 7.4 to pH 8.0. DMSO stocks were prepared for the test compounds. Aliquots of the DMSO solutions were diluted to 0.05 mM by 0.05 mM Sodium phosphate buffer with 0.5% BSA. Then 10 μL of 0.05 mM solutions were dosed into 90 μL of plasma in duplicates (n=2), which had been pre-warmed to 37° C., at a final test compound concentration of 5 μM. The plates were kept in a 37° C. water bath for the duration of the experiment. At each time point (0, 5, 15, 30, 45, 60, and 120 minutes), 400 μL of acetonitrile was added into corresponding wells. After the final time point was sampled, the plates were shaken at the vibrator (IKA, MTS 2/4) for 10 min (600 rpm/min) and then centrifuged at 5594 g for 15 min (Thermo Multifuge×3R). Aliquots of the supernatant were removed, diluted 1:1 into distilled water, and analyzed by LC-MS/MS. The peak area response ratio to internal standard (PARR) of the compounds at 5, 15, 30, 45, 60, and 120 minutes was compared to the PARR at time 0 to determine the percent of test compound remaining at each time point. Half-lives were calculated using Excel software, fitting to a single-phase exponential decay equation.

[1] = Metabolic stability assay in rat liver microsomes (RLM); type: in vitro ADME; conditions: 1 μM
Procedure: (§1) Protocol 1: Studies were carried out in human and rat liver microsomes (“HLM” and “RLM,” respectively). Human and rat liver microsomes were purchased from BD Gentest. DMSO stocks were prepared for the test compounds. Aliquots of the DMSO solutions were diluted to 0.5 mM by acetonitrile, then further diluted by liver microsomes/buffer to 1.5 μM. 30 μL of 1.5 μM solutions were mixed with 15 μL of 6 mM NADPH, which had been pre-warmed to 37° C., at a final test compound concentration of 1 μM. The plates were kept in a 37° C. water bath for the duration of the experiment. At each time point (0, 5, 15, 30, 45 minutes), 135 μL of acetonitrile was added into corresponding wells. After the final time point was sampled, the plates were shaken at a vibrator (IKA, MTS 2/4) for 10 min (600 rpm/min) and then centrifuged at 5594 g for 15 min (Thermo Multifuge×3R). Aliquots of the supernatant were removed, diluted 1:1 into distilled water, and analyzed by LC-MS/MS. The peak area response ratio to internal standard (PARR) of the compounds at 5, 15, 30, 45 minutes was compared to the PARR at time 0 to determine the percent of test compound remaining at each time point. Half-lives were calculated using Excel software, fitting to a single-phase exponential decay equation.
(§2) Protocol 2: Studies were carried out in human and rat liver microsomes. Buffer solutions were prepared as follows: Buffer A: 1.0 L of 0.1 M monobasic Potassium Phosphate buffer containing 1.0 mM EDTA; Buffer B: 1.0 L of 0.1 M Dibasic Potassium Phosphate buffer containing 1.0 mM EDTA; Buffer C: 0.1 M Potassium Phosphate buffer, 1.0 mM EDTA, pH 7.4 by titrating 700 mL of buffer B with buffer A while monitoring with a pH meter.
(§3) Reference compound (Ketanserin) and test compound spiking solutions were prepared as follows: 500 μM spiking solution: add 10 μL of 10 mM DMSO stock solution into 190 μL ACN; 1.5 μM spiking solution in microsomes (0.75 mg/mL): add 1.5 μL of 500 μM spiking solution and 18.75 μL of 20 mg/mL liver microsomes into 479.75 μL of Buffer C.
(§4) NADPH stock solution (6 mM) was prepared by dissolving NADPH into buffer C.
(§5) Assay procedure: 30 μL of 1.5 μM spiking solution containing 0.75 mg/mL microsomes solution was dispensed to the wells designated for […]. The plate was pre-incubated at 37° C. for 10 minutes. 15 μL of NADPH stock solution (6 mM) was added to the wells designated as Time 45, and the timer was started. At 30 mM, 15 mM, and 5 mM, 15 μL NADPH stock solution (6 mM) was added to the wells, respectively. At the end of incubation (0 mM), 135 μL of ACN containing IS was added to all the wells. Then 15 μL of NADPH stock solution (6 mM) was added to the wells designated as Time 0. After quenching, the reaction mixtures were centrifuged at 3220 g for […]. Following centrifugation, 50 μL of the supernatant was transferred from each well into a 96-well sample plate containing 50 μL of ultra-pure water (Millipore) for LC/MS analysis. The peak area response (PARR) ratio to internal standard of the compounds at 5, 15, 30, and 45 minutes was compared to the PARR at time 0 to determine the percent of test compound remaining at each time point. Half-lives were calculated using Excel software, fitting to a single-phase exponential decay equation.

[2] = biological target: T1, rat brain nicotinic receptor (α7 NAChR) (Rattus norvegicus (Rat), UniProt Q05941); type: binding; conditions: Protocol No. 2; [3H] α-Bungarotoxin 0.4 nM, rat brain P2 membrane
[3] = Metabolic stability assay in human liver microsomes (HLM); type: in vitro ADME; conditions: 1 μM
Procedure: as §1, §2, §3, §4, §5

CYP2C9 = CYP2C9 (Homo sapiens (Human), UniProt P11712); assay: Cytochrome P450 inhibition in human liver microsomes, CYP2C9; conditions: read-out: 2C9 IC50, Protocol 1
CYP3A4 = CYP3A4 (Homo sapiens (Human), UniProt P08684); assay: Cytochrome P450 inhibition in human liver microsomes, CYP3A4
CYP1A2 = CYP1A2 (Homo sapiens (Human), UniProt P05177); assay: Cytochrome P450 inhibition in human liver microsomes, CYP1A2
CYP2C19 [4] = biological target: T2, CYP2C19 (Homo sapiens (Human), UniProt P33261); assay: Cytochrome P450 inhibition in human liver microsomes, CYP2C19; conditions: read-out: 2C19 IC50, Protocol 1
[5] = biological target: T1, rat brain nicotinic receptor (α7 NAChR); type: binding
CYP2C19 [6] = biological target: T2, CYP2C19; conditions: microsomes
[7] = read-out: 3A4 IC50 (Midazolam), substrate midazolam, Protocol 1
[8] = read-out: 3A4 IC50 (Testosterone), substrate testosterone, Protocol 1
[9] = Protocol No. 1, rat liver microsomes
[10] = Protocol No. 1, human liver microsomes

Chain of CYP3A4 (P08684 whole entry): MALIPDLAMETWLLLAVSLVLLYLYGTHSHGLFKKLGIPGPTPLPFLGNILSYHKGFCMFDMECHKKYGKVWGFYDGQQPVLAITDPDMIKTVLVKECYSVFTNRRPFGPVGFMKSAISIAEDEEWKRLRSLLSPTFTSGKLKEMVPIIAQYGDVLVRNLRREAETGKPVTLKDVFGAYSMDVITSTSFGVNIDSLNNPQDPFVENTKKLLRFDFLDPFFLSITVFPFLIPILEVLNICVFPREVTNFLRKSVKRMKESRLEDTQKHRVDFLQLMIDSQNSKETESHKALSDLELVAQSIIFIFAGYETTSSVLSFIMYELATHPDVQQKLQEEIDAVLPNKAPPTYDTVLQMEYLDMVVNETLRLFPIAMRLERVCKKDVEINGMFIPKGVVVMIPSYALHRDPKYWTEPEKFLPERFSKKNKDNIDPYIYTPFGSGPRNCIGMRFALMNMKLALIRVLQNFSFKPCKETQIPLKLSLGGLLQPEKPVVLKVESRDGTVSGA
T2 sequence (P33261 whole entry): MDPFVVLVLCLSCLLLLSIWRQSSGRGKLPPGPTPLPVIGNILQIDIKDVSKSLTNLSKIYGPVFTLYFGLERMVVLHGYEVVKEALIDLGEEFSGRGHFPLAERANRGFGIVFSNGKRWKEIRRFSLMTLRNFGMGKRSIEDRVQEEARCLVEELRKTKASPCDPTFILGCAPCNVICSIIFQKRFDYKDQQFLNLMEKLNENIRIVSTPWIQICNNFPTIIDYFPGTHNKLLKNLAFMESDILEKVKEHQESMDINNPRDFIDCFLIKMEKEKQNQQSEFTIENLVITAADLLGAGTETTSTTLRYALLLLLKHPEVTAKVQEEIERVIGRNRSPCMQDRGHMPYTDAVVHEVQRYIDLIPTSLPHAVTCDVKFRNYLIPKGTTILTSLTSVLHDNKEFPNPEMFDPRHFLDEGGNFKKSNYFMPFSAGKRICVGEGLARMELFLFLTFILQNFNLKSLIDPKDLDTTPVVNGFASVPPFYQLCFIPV
T1 sequence (Q05941 23-502 limits assumed): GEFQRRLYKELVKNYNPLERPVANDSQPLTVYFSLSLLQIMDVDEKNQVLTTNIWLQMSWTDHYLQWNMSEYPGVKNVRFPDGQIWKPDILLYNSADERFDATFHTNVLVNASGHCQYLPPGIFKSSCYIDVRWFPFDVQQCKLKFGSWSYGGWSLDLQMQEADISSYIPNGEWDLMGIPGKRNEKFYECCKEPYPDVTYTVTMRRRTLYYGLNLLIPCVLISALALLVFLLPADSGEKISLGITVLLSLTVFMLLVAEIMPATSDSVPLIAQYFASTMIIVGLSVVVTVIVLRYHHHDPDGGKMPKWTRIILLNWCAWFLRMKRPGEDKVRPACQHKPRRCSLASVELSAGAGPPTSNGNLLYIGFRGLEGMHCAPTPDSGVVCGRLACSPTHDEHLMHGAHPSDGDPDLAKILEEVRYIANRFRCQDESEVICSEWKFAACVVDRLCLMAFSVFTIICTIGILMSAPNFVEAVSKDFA
Chain of CYP1A2 (P05177 whole entry): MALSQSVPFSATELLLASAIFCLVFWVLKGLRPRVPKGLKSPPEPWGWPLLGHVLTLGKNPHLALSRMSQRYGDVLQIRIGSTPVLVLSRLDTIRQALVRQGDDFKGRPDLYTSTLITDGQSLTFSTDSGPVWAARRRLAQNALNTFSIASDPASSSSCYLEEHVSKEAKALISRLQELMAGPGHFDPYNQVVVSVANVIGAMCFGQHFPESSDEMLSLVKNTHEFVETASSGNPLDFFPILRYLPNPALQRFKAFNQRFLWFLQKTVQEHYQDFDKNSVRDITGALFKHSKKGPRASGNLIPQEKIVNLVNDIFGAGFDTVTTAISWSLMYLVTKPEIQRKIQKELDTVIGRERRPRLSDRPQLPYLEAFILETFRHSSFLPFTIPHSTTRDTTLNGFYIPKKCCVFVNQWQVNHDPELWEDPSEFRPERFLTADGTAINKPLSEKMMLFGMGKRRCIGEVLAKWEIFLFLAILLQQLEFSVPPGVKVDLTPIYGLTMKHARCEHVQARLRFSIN
Chain of CYP2C9 (P11712 whole entry): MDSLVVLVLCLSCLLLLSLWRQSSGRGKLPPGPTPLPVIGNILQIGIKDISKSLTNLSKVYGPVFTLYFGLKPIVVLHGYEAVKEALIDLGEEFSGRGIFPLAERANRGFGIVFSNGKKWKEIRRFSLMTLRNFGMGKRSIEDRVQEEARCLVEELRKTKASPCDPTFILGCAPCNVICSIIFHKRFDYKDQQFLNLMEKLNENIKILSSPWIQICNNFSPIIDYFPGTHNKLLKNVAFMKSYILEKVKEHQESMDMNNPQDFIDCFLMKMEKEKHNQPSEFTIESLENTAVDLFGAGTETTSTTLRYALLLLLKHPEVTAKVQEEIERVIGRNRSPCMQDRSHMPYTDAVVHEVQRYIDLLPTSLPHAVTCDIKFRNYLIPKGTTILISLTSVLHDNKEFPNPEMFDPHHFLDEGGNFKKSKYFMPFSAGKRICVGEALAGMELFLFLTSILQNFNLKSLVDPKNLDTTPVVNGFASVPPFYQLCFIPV

SMILES	% Remaining @ 2 h (Human plasma stability; human, 2 h)	RLM ([1]; rat, microsomes)	IC50 [2]	Ki [2]	HLM ([3]; human, microsomes)	IC50 [5]	Ki [5]	other results
Cc1c(OCCO)ccc2[nH]cc(C(=O)OCC34CCN(CC3)CC4)c12 [Compound 95, quinuclidin-4-ylmethyl 5-(2-hydroxyethoxy)-4-methyl-1H-indole-3-carboxylate, 2,2,2-trifluoroacetate salt]	73.17%	17.75 mL/min/kg	0.213 µM	0.414 µM	2.86 mL/min/kg	–	–	–
Cc1cc(F)cc2[nH]cc(C(=O)OCC34CCN(CC3)CC4)c12 [Compound 44, quinuclidin-4-ylmethyl 6-fluoro-4-methyl-1H-indole-3-carboxylate]	95.72%	531.35 mL/min/kg	–	–	3.5 mL/min/kg	0.48 µM	0.412 µM	T1/2 (Human plasma stability; human): ∞; IC50 (CYP2C9): > 10 µM; IC50 (CYP3A4; [7]): > 10 µM; IC50 (CYP3A4; [8]): > 10 µM; IC50 (CYP1A2; read-out: 1A2 IC50, Protocol 1): > 10 µM; IC50 (CYP2C19 [4]): > 10 µM
O=C(OCC12CCN(CC1)CC2)c1c[nH]c2c(Cl)cccc12 [Compound 25, quinuclidin-4-ylmethyl 7-chloro-1H-indole-3-carboxylate]	–	–	–	–	–	1.65 µM	1.45 µM	RLM ([1]; rat, microsomes, pH 7.4): 219.053 mL/min/kg; IC50 (CYP1A2; read-out: 1A2 IC50, Protocol 2): > 10 µM; IC50 (CYP2C19 [6]): > 10 µM; HLM ([3]; human, microsomes, pH 7.4): <13.608 mL/min/kg
Cc1c(OCC(F)(F)F)ccc2[nH]cc(C(=O)OCC34CCN(CC3)CC4)c12 [Compound 94, quinuclidin-4-ylmethyl 4-methyl-5-(2,2,2-trifluoroethoxy)-1H-indole-3-carboxylate]	76.38%	26.52 mL/min/kg	0.162 µM	0.23 µM	2.62 mL/min/kg	–	–	–
COc1cc(C)cc2[nH]cc(C(=O)OCC34CCN(CC3)CC4)c12 [Compound 85, quinuclidin-4-ylmethyl 4-methoxy-6-methyl-1H-indole-3-carboxylate]	27.28%	59.67 mL/min/kg	0.18 µM	0.357 µM	8.18 mL/min/kg	–	–	–
O=C(OCC12CCN(CC1)CC2)c1c[nH]c2ccc(Cl)cc12 [Compound 2, quinuclidin-4-ylmethyl 5-chloro-1H-indole-3-carboxylate]	–	–	–	–	–	0.328 µM	0.287 µM	RLM ([1]; rat, microsomes, pH 7.4): 127.44 mL/min/kg; IC50 (CYP1A2; read-out: 1A2 IC50, Protocol 2): > 10 µM; IC50 (CYP2C19 [6]): > 10 µM; HLM ([3]; human, microsomes, pH 7.4): <13.608 mL/min/kg
Cc1c(F)ccc2[nH]cc(C(=O)OCC34CCN(CC3)CC4)c12 [Compound 43, quinuclidin-4-ylmethyl 5-fluoro-4-methyl-1H-indole-3-carboxylate]	112.99%	469.04 mL/min/kg	–	–	5.57 mL/min/kg	0.207 µM	0.177 µM	T1/2 (Human plasma stability; human): ∞; IC50 (CYP2C9): > 10 µM; IC50 (CYP3A4; [7]): > 10 µM; IC50 (CYP3A4; [8]): > 10 µM; IC50 (CYP1A2; read-out: 1A2 IC50, Protocol 1): > 10 µM; IC50 (CYP2C19 [4]): > 10 µM
COc1cc2[nH]cc(C(=O)OCC34CCN(CC3)CC4)c2cc1OC [Compound 87, quinuclidin-4-ylmethyl 5,6-dimethoxy-1H-indole-3-carboxylate]	–	–	1.56 µM	2.71 µM	–	–	–	% Remaining @ 2 h (Human plasma stability; Protocol No. 2, 37° C.): 55.42%; RLM [1, 9]: 257.71 mL/min/kg; HLM [3, 10]: 0.5 mL/min/kg
Cc1cc2c(C(=O)OCC34CCN(CC3)CC4)c[nH]c2cc1C#N [Compound 84, quinuclidin-4-ylmethyl 6-cyano-5-methyl-1H-indole-3-carboxylate]	–	–	3.34 µM	7.18 µM	–	–	–	% Remaining @ 2 h (Human plasma stability; Protocol No. 2, 37° C.): 59.79%; RLM [1, 9]: 116.21 mL/min/kg; HLM [3, 10]: 10.24 mL/min/kg
Cc1cc(OC(=O)C(C)(C)C)cc2[nH]cc(C(=O)OCC34CCN(CC3)CC4)c12 [Compound 89, quinuclidin-4-ylmethyl 4-methyl-6-(pivaloyloxy)-1H-indole-3-carboxylate]	77.23%	1154.15 mL/min/kg	1.07 µM	2.13 µM	347.66 mL/min/kg	–	–	–
Cl.O=C(OCC12CCN(CC1)CC2)c1c[nH]c2cc(C(F)(F)F)ccc12 [Compound 90, quinuclidin-4-ylmethyl 6-(trifluoromethyl)-1H-indole-3-carboxylate]	–	–	> 3 µM	> 3 µM	–	–	–	% Remaining @ 2 h (Human plasma stability; Protocol No. 2, 37° C.): 63.18%; RLM [1, 9]: 72.22 mL/min/kg; HLM [3, 10]: 5.21 mL/min/kg
CC(=O)Nc1cc(C)c2c(C(=O)OCC34CCN(CC3)CC4)c[nH]c2c1 [Compound 93, quinuclidin-4-ylmethyl 6-acetamido-4-methyl-1H-indole-3-carboxylate]	81.38%	12.66 mL/min/kg	1.31 µM	2.87 µM	12.96 mL/min/kg	–	–	–
